According to PubChem BioAssay (NCI):
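Protocol summary: plate cells (96-well), add compound at 5 concentrations, incubate 48 h, interpolate endpoints linearly. GI50: concentration for 50% inhibition of growth. TGI: concentration producing complete growth inhibition.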

These compounds were tested on KM12 colon (assay: NCI anticancer screen, dose series, 48 h).

| SMILES | GI50 [µM] | TGI [µM] |
| --- | --- | --- |
| CCCCn1c(=O)c2c(nc3n2CCCN3CCc2ccc(OCC(=O)NCCN(CC)CC)cc2)n(CCCC)c1=O | 6.49 | 13.5 |

These compounds were tested on NCI/ADR-RES ovarian (assay: NCI anticancer screen, dose series, 48 h).

| SMILES | GI50 [µM] | TGI [µM] |
| --- | --- | --- |
| C[C@@H]1O[C@@H](OC[C@H]2O[C@@H](OCCc3ccc(O)c(O)c3)[C@H](O)[C@@H](O)[C@@H]2OC(=O)/C=C/c2ccc(O)c(O)c2)[C@H](O)[C@H](O)[C@H]1O | 74.3 | > 100 |
| CCn1c2ccccc2c2cc(/C=C(/C#N)C(N)=O)ccc21 | 11.2 | 88.1 |
| CCN1C(=O)N(CC)C2C1NN=c1s/c(=C3\C(=O)N(CCc4ccccc4)c4ccccc43)c(=O)n12 (stereo not given) | 0.378 | 6.48 |
| CN(C)c1ccc(N=Nc2ccncc2)cc1 |  | > 100 |
| CC1(C)N=C(N)N=C(N)N1c1ccc(CCCCc2ccc(S(=O)(=O)F)cc2)c(Cl)c1 | 45 | > 100 |
| N#CN1CC[C@H](C(=O)Nc2ncc(-c3ccncc3)s2)C1 | < 0.0242 | > 100 |
| Cn1cc(-c2nonc2-c2cn(C)c3ccccc23)c2ccccc21 | 0.626 | > 100 |
| CN(CCCCCl)P(=O)(OCCS(=O)(=O)CC(NC(=O)CCC(N)C(=O)O)C(=O)NC(C(=O)O)c1ccccc1)OCC1OC(n2cc(F)c(=O)[nH]c2=O)CC1O (stereo not given) | 0.323 | > 65.1 |
| CCN(CCO)CC(C)Nc1ccc([N+](=O)[O-])c2sc3ccccc3c(=O)c12 (stereo not given) | 1.6 | 5.86 |
| O=[N+]([O-])c1cc(S(=O)(=O)Oc2ccccc2)ccc1Cl | 8.27 | 45.3 |
| COC(=O)c1nc(-c2ccccc2)oc1S(=O)(=O)n1nc(C)cc1N | 22.5 | 57.6 |
| CCCCCn1sc(=O)n(Cc2ccc(CNC(=O)OCc3ccc4cccc(O)c4n3)cc2)c1=O | 1.54 | 4.41 |
| Cn1cncc1CC1COC(=O)C1C(O)c1ccccc1 (stereo not given) |  | > 100 |
| CCCCn1c(=O)c2c(nc3n2CCCN3CCc2ccc(OCC(=O)NCCN(CC)CC)cc2)n(CCCC)c1=O | 5.42 | 27.9 |

The compounds below were run on RPMI-8226 leukemia (assay: NCI anticancer screen, dose series, 48 h).

| SMILES | GI50 [µM] | TGI [µM] |
| --- | --- | --- |
| C[C@@H]1O[C@@H](OC[C@H]2O[C@@H](OCCc3ccc(O)c(O)c3)[C@H](O)[C@@H](O)[C@@H]2OC(=O)/C=C/c2ccc(O)c(O)c2)[C@H](O)[C@H](O)[C@H]1O | 12.2 | 50.9 |
| CCn1c2ccccc2c2cc(/C=C(/C#N)C(N)=O)ccc21 | 7.94 | > 84.7 |
| CCN1C(=O)N(CC)C2C1NN=c1s/c(=C3\C(=O)N(CCc4ccccc4)c4ccccc43)c(=O)n12 (stereo not given) | 0.608 |  |
| CN(C)c1ccc(N=Nc2ccncc2)cc1 |  | > 100 |
| CC1(C)N=C(N)N=C(N)N1c1ccc(CCCCc2ccc(S(=O)(=O)F)cc2)c(Cl)c1 | 0.283 | 13 |
| N#CN1CC[C@H](C(=O)Nc2ncc(-c3ccncc3)s2)C1 | < 0.0201 | 1.27 |
| Cn1cc(-c2nonc2-c2cn(C)c3ccccc23)c2ccccc21 | 0.967 | > 100 |
| CN(CCCCCl)P(=O)(OCCS(=O)(=O)CC(NC(=O)CCC(N)C(=O)O)C(=O)NC(C(=O)O)c1ccccc1)OCC1OC(n2cc(F)c(=O)[nH]c2=O)CC1O (stereo not given) |  | 1.48 |
| CCN(CCO)CC(C)Nc1ccc([N+](=O)[O-])c2sc3ccccc3c(=O)c12 (stereo not given) | 1.26 | 4 |
| O=[N+]([O-])c1cc(S(=O)(=O)Oc2ccccc2)ccc1Cl | 3.33 | 8.29 |
| COC(=O)c1nc(-c2ccccc2)oc1S(=O)(=O)n1nc(C)cc1N | 5.39 | 23.4 |
| CCCCCn1sc(=O)n(Cc2ccc(CNC(=O)OCc3ccc4cccc(O)c4n3)cc2)c1=O | 1.56 | 11.2 |
| Cn1cncc1CC1COC(=O)C1C(O)c1ccccc1 (stereo not given) |  | > 100 |
| CCCCn1c(=O)c2c(nc3n2CCCN3CCc2ccc(OCC(=O)NCCN(CC)CC)cc2)n(CCCC)c1=O | 1.13 | 2.9 |

Each compound was assayed on T-47D breast (assay: NCI anticancer screen, dose series, 48 h).

| SMILES | GI50 [µM] | TGI [µM] |
| --- | --- | --- |
| C[C@@H]1O[C@@H](OC[C@H]2O[C@@H](OCCc3ccc(O)c(O)c3)[C@H](O)[C@@H](O)[C@@H]2OC(=O)/C=C/c2ccc(O)c(O)c2)[C@H](O)[C@H](O)[C@H]1O | > 100 | > 100 |
| CCn1c2ccccc2c2cc(/C=C(/C#N)C(N)=O)ccc21 | 3.33 | > 100 |
| CCN1C(=O)N(CC)C2C1NN=c1s/c(=C3\C(=O)N(CCc4ccccc4)c4ccccc43)c(=O)n12 (stereo not given) | 1.19 | > 23.9 |
| CN(C)c1ccc(N=Nc2ccncc2)cc1 |  | > 100 |
| CC1(C)N=C(N)N=C(N)N1c1ccc(CCCCc2ccc(S(=O)(=O)F)cc2)c(Cl)c1 | 2.05 | 15.2 |
| N#CN1CC[C@H](C(=O)Nc2ncc(-c3ccncc3)s2)C1 | < 0.0177 | 1.24 |
| Cn1cc(-c2nonc2-c2cn(C)c3ccccc23)c2ccccc21 | 4.77 | > 100 |
| CN(CCCCCl)P(=O)(OCCS(=O)(=O)CC(NC(=O)CCC(N)C(=O)O)C(=O)NC(C(=O)O)c1ccccc1)OCC1OC(n2cc(F)c(=O)[nH]c2=O)CC1O (stereo not given) | 5.65 | > 100 |
| CCN(CCO)CC(C)Nc1ccc([N+](=O)[O-])c2sc3ccccc3c(=O)c12 (stereo not given) | 2.68 | 26.8 |
| O=[N+]([O-])c1cc(S(=O)(=O)Oc2ccccc2)ccc1Cl | 2.21 | 5.38 |
| COC(=O)c1nc(-c2ccccc2)oc1S(=O)(=O)n1nc(C)cc1N | 3.84 | 18.3 |
| CCCCCn1sc(=O)n(Cc2ccc(CNC(=O)OCc3ccc4cccc(O)c4n3)cc2)c1=O | 1.79 | 4.52 |
| Cn1cncc1CC1COC(=O)C1C(O)c1ccccc1 (stereo not given) |  | > 100 |
| CCCCn1c(=O)c2c(nc3n2CCCN3CCc2ccc(OCC(=O)NCCN(CC)CC)cc2)n(CCCC)c1=O | 4.3 | 13.7 |

These compounds were tested on TK-10 renal (assay: NCI anticancer screen, dose series, 48 h).

| SMILES | GI50 [µM] | TGI [µM] |
| --- | --- | --- |
| C[C@@H]1O[C@@H](OC[C@H]2O[C@@H](OCCc3ccc(O)c(O)c3)[C@H](O)[C@@H](O)[C@@H]2OC(=O)/C=C/c2ccc(O)c(O)c2)[C@H](O)[C@H](O)[C@H]1O | > 100 | > 100 |
| CCn1c2ccccc2c2cc(/C=C(/C#N)C(N)=O)ccc21 | 2.31 | > 28.8 |
| CCN1C(=O)N(CC)C2C1NN=c1s/c(=C3\C(=O)N(CCc4ccccc4)c4ccccc43)c(=O)n12 (stereo not given) | 4.22 | 29.2 |
| CN(C)c1ccc(N=Nc2ccncc2)cc1 |  | > 100 |
| CC1(C)N=C(N)N=C(N)N1c1ccc(CCCCc2ccc(S(=O)(=O)F)cc2)c(Cl)c1 | 0.848 | 20.3 |
| N#CN1CC[C@H](C(=O)Nc2ncc(-c3ccncc3)s2)C1 | 0.109 | 6.18 |
| Cn1cc(-c2nonc2-c2cn(C)c3ccccc23)c2ccccc21 | 6.23 | > 100 |
| CN(CCCCCl)P(=O)(OCCS(=O)(=O)CC(NC(=O)CCC(N)C(=O)O)C(=O)NC(C(=O)O)c1ccccc1)OCC1OC(n2cc(F)c(=O)[nH]c2=O)CC1O (stereo not given) | 0.944 | > 21.4 |
| CCN(CCO)CC(C)Nc1ccc([N+](=O)[O-])c2sc3ccccc3c(=O)c12 (stereo not given) | 1.44 | 11.7 |
| O=[N+]([O-])c1cc(S(=O)(=O)Oc2ccccc2)ccc1Cl | 12.5 | 25.1 |
| COC(=O)c1nc(-c2ccccc2)oc1S(=O)(=O)n1nc(C)cc1N | 11.3 | 24.6 |
| CCCCCn1sc(=O)n(Cc2ccc(CNC(=O)OCc3ccc4cccc(O)c4n3)cc2)c1=O | 1.19 | 3.05 |
| Cn1cncc1CC1COC(=O)C1C(O)c1ccccc1 (stereo not given) |  | > 100 |
| CCCCn1c(=O)c2c(nc3n2CCCN3CCc2ccc(OCC(=O)NCCN(CC)CC)cc2)n(CCCC)c1=O | 7.26 | 14.6 |

Each compound was assayed on UACC-257 melanoma (assay: NCI anticancer screen, dose series, 48 h).

| SMILES | GI50 [µM] | TGI [µM] |
| --- | --- | --- |
| C[C@@H]1O[C@@H](OC[C@H]2O[C@@H](OCCc3ccc(O)c(O)c3)[C@H](O)[C@@H](O)[C@@H]2OC(=O)/C=C/c2ccc(O)c(O)c2)[C@H](O)[C@H](O)[C@H]1O | > 100 | > 100 |
| CCn1c2ccccc2c2cc(/C=C(/C#N)C(N)=O)ccc21 | 4.18 | 15.8 |
| CCN1C(=O)N(CC)C2C1NN=c1s/c(=C3\C(=O)N(CCc4ccccc4)c4ccccc43)c(=O)n12 (stereo not given) | 3.77 | > 100 |
| CN(C)c1ccc(N=Nc2ccncc2)cc1 |  | > 100 |
| CC1(C)N=C(N)N=C(N)N1c1ccc(CCCCc2ccc(S(=O)(=O)F)cc2)c(Cl)c1 | 0.929 | 19.1 |
| N#CN1CC[C@H](C(=O)Nc2ncc(-c3ccncc3)s2)C1 | 0.605 | 6.91 |
| Cn1cc(-c2nonc2-c2cn(C)c3ccccc23)c2ccccc21 | 50.4 | > 100 |
| CN(CCCCCl)P(=O)(OCCS(=O)(=O)CC(NC(=O)CCC(N)C(=O)O)C(=O)NC(C(=O)O)c1ccccc1)OCC1OC(n2cc(F)c(=O)[nH]c2=O)CC1O (stereo not given) | 4.58 | > 100 |
| CCN(CCO)CC(C)Nc1ccc([N+](=O)[O-])c2sc3ccccc3c(=O)c12 (stereo not given) | 1.47 | 2.85 |
| O=[N+]([O-])c1cc(S(=O)(=O)Oc2ccccc2)ccc1Cl | 1.6 | 3.1 |
| COC(=O)c1nc(-c2ccccc2)oc1S(=O)(=O)n1nc(C)cc1N | 18.6 | 39.7 |
| CCCCCn1sc(=O)n(Cc2ccc(CNC(=O)OCc3ccc4cccc(O)c4n3)cc2)c1=O | 1.57 | 3.08 |
| Cn1cncc1CC1COC(=O)C1C(O)c1ccccc1 (stereo not given) |  | > 100 |
| CCCCn1c(=O)c2c(nc3n2CCCN3CCc2ccc(OCC(=O)NCCN(CC)CC)cc2)n(CCCC)c1=O | 1.02 | 2.16 |
